One assay relates to carbamylation of LDL. As to the kind of experiment: In vitro inhibition of LDL carbamylation by potassium cyanate. It counts as biochemical, human. To be noted: molar ratios of 1:1 to 16:1 (L-lysine:KOCN). How it is done: CLDL (cLDL) was produced by chemical modification of nLDL. Native LDL was incubated under sterile conditions with potassium cyanate (Aldrich; Milwaukee, Wis.) (20 mg KOCN/mg nLDL) at 35° C. for 4 hours. Salt was removed by excessive dialysis against 0.15 M NaCl, 0.01% EDTA, pH 7.0 at 4° C. for 48 hours under sterile conditions. To obtain cLDL carbamylated to different degrees, various incubation periods, from 5 to 300 min, were used.
Assessment of carbamylation was made (a) on the basis of relative electrophoretic mobility in agarose gel, and (b) by the homocitrulline assay as described by Trepanier et al.. Briefly, 25 μg of LDL protein in PBS, pH 7.4 (50 μl volume) was incubated with 2 μg proteinase K and 1% SDS (v:v) at 37° C. for 2 hours. Then 250 μl of urea-nitrogen reagent (0.83 M sulfuric acid, 1.13 M orthophosphoric acid, 0.55 mM thiosemicarbazide, 2.6 mM cadmium sulfate), 50 μl 3% diacetyl monoxime in water was added and the mixture was incubated at 97° C. for 30 min. Samples were transferred into a 96-well plate and absorption of chromogen(s) was recorded at 530 nm. Homocitrulline (carbamyl lysine) standard curves (0-30 nmol) were generated using serial dilutions of a stock solution (200 μM) in PBS, pH 7.4. Results are expressed as nmol homocitrulline/mg LDL protein).

Another assay deals with lens protein. As to conditions: cited from earlier work.
Another assay relates to rat lens. As to conditions: rat lens incubated in cyanate; cited from earlier work.
The subject of another assay is HCAECs. Description: Flow cytometry of LDL-treated cells double-labeled with BrdU and 7-AAD. The class given is cell-based, human. How it is done:
Flow cytometry of LDL-treated cells double-labeled with BrdU and 7-AAD (marker of total DNA) was performed to detect whether BrdU incorporation is linked to DNA synthesis or DNA repair, and whether mitosis is suppressed, and thus accumulation of polyploid cells is associated with the increase of BrdU incorporation.
On the technique in general: Flow cytometry measures light scatter and fluorescence of single cells or particles in a stream.

Entries after “also recorded” stand apart in the source; their conditions may differ.

In the case of `N=C(N)NCCC[C@H](N)C(=O)O` [L-arginine], in the assay with carbamylation of LDL, the “inhibition of carbamylation of LDL in vitro” value (“inhibition” below) is on record as “can inhibit carbamylation of LDL in vitro”.

On to `O=C(O)COc1nn(Cc2ccccc2)c2ccccc12` [Bendazac], for which the “carbamylation of lens protein” value with lens protein (present with cyanate) is “inhibits the carbamylation of lens protein”.

Consider `NCCCC[C@H](N)C(=O)O` [L-lysine], for which the “inhibition” value in the assay with carbamylation of LDL is “can inhibit carbamylation of LDL in vitro; also recorded: inhibition of LDL carbamylation”.

On to `CC(C)Cc1ccc(C(C)C(=O)O)cc1` (stereo not shown) [ibuprofen], for which the “binding of cyanate to lens protein” value in the assay with lens protein is “dose-dependent decrease”.

Turning to `CC(=O)Oc1ccccc1C(=O)O` [aspirin], the “cyanate-induced increase in phase separation temperature” value in the assay with rat lens is “aspirin-preventable increase in phase separation temperature”.

With `NCC(=O)O` [L-glycine], in the assay on carbamylation of LDL, the “inhibition” value was “can inhibit carbamylation of LDL in vitro”.

Regarding `N#C[O-].[K+]` [Potassium cyanate, potassium cyanate], the “induction of proliferation or DNA synthesis” value in the assay with HCAECs was “did not induce proliferation or DNA synthesis”.

The values are drawn from US7722858B2, “Prevention and treatment of atherosclerosis by reducing carbamylation of LDL or the effects of carbamylated LDL” (Board of Trustees of the University of Arkansas, priority 2001, dated 2010).
